Data set [1] relates to A-427. The data set can be described thus: MTT test, cytotoxic activity on non-clonogenic cell lines. Type of data set: cell-based. The following applies: Homo sapiens, 10^−5 M, 72 hours of incubation, control condition = 100%, mean value, read-out: mean optical density as percentage of control, A-427. Here is the method: (§1) The principle of the MTT test is based on the mitochondrial reduction, by the metabolically active live cells, of the yellow-colored product MTT (3-(4,5-dimethylthiazol-2-yl)-2,5-diphenyltetrazolium bromide) to a blue-colored product, formazan. The amount of formazan thus obtained is directly proportional to the amount of live cells present in the culture well(s). This amount of formazan is measured by spectrophotometry.
(§2) The cell lines are maintained as a monolayer culture at 37° C. in stoppered culture dishes containing MEM 25 MM HEPES (Minimum Essential Medium) base medium. This medium is suited to the growth of a range of various mammalian diploid or primary cells. This medium is then supplemented with:
(§3) The 12 human cancer cell lines which were used were obtained from the American Type Culture Collection (ATCC, Rockville, Md., USA). These 12 cell lines are:
(§4) Experimentally, 100 μl of a cell suspension containing 20 000 to 50 000 (depending on the cell type used) cells/ml of culture medium are inoculated -in 96-well flat-bottomed multi-well plates and are left to stand in an incubator at 37° C., 5% CO2 and 70% humidity. After an incubation time of 24 hours, the culture medium is replaced with 100 μl of fresh medium containing either the various test compounds—at concentrations varying from 10^−5 to 10^−10 M—or the solvent having served for dissolving the products to be tested (control condition). […] The microplates are thus incubated for 3 hours at 37° C., then centrifuged for 10 minutes at 400 g. The yellowish solution of MTT is removed and the blue formazan crystals formed in the cell region are dissolved in 100 μl or DMSO. The microplates are then shaken for 5 minutes. […] Software incorporated in the spectrophotometer calculates the average optical density values and the standard deviation (SD) and standard error of mean (SEM) values.
Background: Tetrazolium assays rely on reduction of a dye to a coloured formazan, in cell work by metabolically active cells.

For data set [2], the system named is A549. The data set is described as above. It is filed as cell-based. The following applies: Homo sapiens, 10^−5 M, 72 hours of incubation, control condition = 100%, mean value, read-out: mean optical density as percentage of control, A549. Here is the method:
as §1, §2, §3, §4

For data set [3], the system named is HCT-15. The description is as above. Type of data set: cell-based. The note with it: Homo sapiens, 10^−5 M, 72 hours of incubation, control condition = 100%, mean value, read-out: mean optical density as percentage of control, HCT-16. The procedure: as §1, §2, §3, §4
Data set [4] concerns LoVo. The data set is described as above. The following applies: Homo sapiens, 10^−5 M, 72 hours of incubation, control condition = 100%, mean value, read-out: mean optical density as percentage of control, LoVo. Type of data set: cell-based. Here is the method:
as §1, §2, §3, §4

The subject of data set [5] is MCF7. Described as above. It is filed as cell-based. The following applies: Homo sapiens, 10^−5 M, 72 hours of incubation, control condition = 100%, mean value, read-out: mean optical density as percentage of control, MCF7. The procedure:
as §1, §2, §3, §4

Data set [6] concerns PC-3. Described as above. Type of data set: cell-based. The note with it: Homo sapiens, 10^−5 M, 72 hours of incubation, control condition = 100%, mean value, read-out: mean optical density as percentage of control, PC-3. The procedure: as §1, §2, §3, §4
Data set [7] deals with T-47D. Described as above. It is filed as cell-based. The note with it: Homo sapiens, T47D; 10^−5 M, 72 hours of incubation, control condition = 100%, mean value; read-out: mean optical density as percentage of control, T-47D. The procedure:
as §1, §2, §3, §4

Data set [8] deals with U-373MG. The data set is described as above. Type of data set: cell-based. The note with it: Homo sapiens, U373 MG; 10^−5 M, 72 hours of incubation, control condition = 100%, mean value; read-out: mean optical density as percentage of control, U-373MG. Here is the method:
as §1, §2, §3, §4

Data set [9] has as its system U-87MG. The description is as above. Type of data set: cell-based. The note with it: Homo sapiens, U-87 MG; 10^−5 M, 72 hours of incubation, control condition = 100%, mean value; read-out: mean optical density as percentage of control, U-87MG. The procedure:
as §1, §2, §3, §4

Data set [10] concerns SW1088. The data set is described as above. It is filed as cell-based. The following applies: Homo sapiens, 10^−5 M, 72 hours of incubation, control condition = 100%, mean value, read-out: mean optical density as percentage of control, SW1088. The procedure: as §1, §2, §3
SW1088 (code ATCC: HTB-12) which is an astro-cytoma,
as §4

Data set [11] deals with J82. The description is as above. Type of data set: cell-based. The following applies: Homo sapiens, 10^−5 M, 72 hours of incubation, control condition = 100%, mean value, read-out: mean optical density as percentage of control, J82. The procedure: as §1, §2, §3
(§5) J82 (code ATCC: HTB-1) and T24 (code ATCC: HTB-4) which are two bladder cancers,
as §4

Data set [12] deals with T24. The data set is described as above. It is filed as cell-based. The following applies: Homo sapiens, T-24; 10^−5 M, 72 hours of incubation, control condition = 100%, mean value; read-out: mean optical density as percentage of control, T24. Here is the method:
as §1, §2, §3, §5, §4

Data set [13] is described as follows: Determination of the maximum tolerated dose (MTD). The note with it: B6D2F1/Jico, mouse, in vivo, ip; single intraperitoneal administration, doses 2.5 to 160 mg/kg, survival over 14 days. The procedure: The evaluation of the maximum tolerated dose was performed on 4- to 6-week-old B6D2F1/Jico mice. The compounds were administered intraperitoneally at increasing doses ranging from 2.5 to 160 mg/kg. The value of the MTD (expressed in mg/kg) is determined from the observation of the survival rate of the animals over a 14-day period after a single administration of the product under consideration. The change in weight of the animals is also monitored during this period. When the MTD value is greater than 160 mg/kg, the MTD value is considered as being 160 mg/kg by default.

In patent publication US6645983B1, “Pharmaceutical compositions comprising 4-quinolones for treating cancers” (Laboratoire L. Lafon, priority 1999, dated 2003) one finds viability and MTD data, which are given here for eight molecules.

As usually defined, the MTD is the highest dose tested that stayed within the study's limit of toxicity. A low value points to poorer tolerability.

On to `O=c1c(-c2ccccc2)c[nH]c2ccccc12` [CRL8326, 3-Phenyl-1,4-dihydro-4-quinolinone], for which the viability at 10 µM in data set [1] was 101%; in [2] it was 104%; in data set [3], 110%; in [4], 67.7%; in [5] it was 94.1%; in data set [6], 95.4%. The viability at 10 µM was 50.2% in data set [7]; 96.9% in [8]; 102% in [9]; 108% in data set [10]; 86.9% in [11]; 92.6% in [12]. Moreover, the MTD at 14 day in [13] is greater than 160 mg/kg.

Regarding `COc1ccc(-c2c[nH]c3ccccc3c2=O)cc1` [CRL8327, 3-(4-Methoxyphenyl)-1,4-dihydro-4-quinolinone], the viability at 10 µM in data set [1] amounted to 77.5%; in [2], 71.5%; in [3], 87.5%; in data set [4] it was 47.3%; in data set [5], 90.7%; in [6], 87.4%. Further, the viability at 10 µM in data set [7] was found to be 79%; in [8], 58.7%; in data set [9] it was 89%; in [10], 99%; in data set [11], 85.1%; in [12] it was 187%. This molecule also came in with a maximal tolerated dose (MTD) at 14 day in data set [13] greater than 160 mg/kg.

Regarding `COc1cccc2c(=O)c(-c3ccccc3)c[nH]c12` [CRL8328, 8-Methoxy-3-phenyl-1,4-dihydro-4-quinolinone], the viability at 10 µM in [1] came to 101%; in data set [2], 92.5%; in [3], 85.8%; in data set [4], 94.3%; in data set [5], 93.7%; in data set [6] it was 91.9%. The viability at 10 µM in data set [7] came out at 96%; in [8] it was 98.1%; in [9] it was 85.7%; in data set [10], 91%; in [11], 95.9%; in [12], 94.8%. The molecule also registered an MTD at 14 day in data set [13] of 80 mg/kg.

As to `COc1ccc(-c2c[nH]c3c(OC)cccc3c2=O)cc1` [CRL8329, 8-Methoxy-3-(4-methoxyphenyl)-1,4-dihydro-4-quinolinone], the viability at 10 µM in data set [1] amounted to 102%; in data set [2], 96.5%; in data set [3], 98%; in data set [4], 94.6%; in [5], 96.3%; in [6], 93.1%. The viability at 10 µM stood at 78.5% in data set [7]; 94% in data set [8]; 1.38% in [9]; 96.2% in [10]; 96.8% in [11]; 95.4% in [12]. Also, the maximum tolerated dose (MTD) at 14 day in data set [13] was greater than 160 mg/kg.

With `COc1ccc(-c2c[nH]c3cc(OC)cc(OC)c3c2=O)cc1` [CRL8337, 5,7-Dimethoxy-3-(4-methoxyphenyl)-1,4-dihydro-4-quinolinone], the viability at 10 µM stood at 106% in data set [1]; 96.9% in data set [2]; 98.5% in data set [3]; 93.3% in [4]; 76.5% in data set [5]; 92.8% in data set [6]. The viability at 10 µM in data set [7] was 79.4%; in data set [8], 95.6%; in data set [9] it was 84.4%; in [10], 84.9%; in data set [11], 90.9%; in data set [12], 102%. The MTD at 14 day in data set [13] is greater than 160 mg/kg.

As to `COc1ccc(-c2cn(C)c3cc(OC)cc(OC)c3c2=O)cc1` [CRL8340, 5,7-Dimethoxy-3-(4-methoxyphenyl)-1-methyl-1,4-dihydro-4-quinolinone], the viability at 10 µM in data set [1] turned out to be 84.2%; in data set [2] it was 84%; in [3], 92.5%; in data set [4], 93%; in data set [5], 72.3%; in data set [6], 84.8%. Further, the viability at 10 µM in [7] was found to be 66.1%; in data set [8], 97.9%; in data set [9] it was 87.6%; in data set [10], 84%; in [11], 90.2%; in [12] it was 82.8%. In [13], this molecule registered an MTD at 14 day greater than 160 mg/kg.

Consider `CCN(CC)C(=O)Cn1cc(-c2ccc(OC)cc2)c(=O)c2c(OC)cc(OC)cc21` [CRL8349, N,N-Diethyl-2-[5,7-dimethoxy-3-(4-methoxyphenyl)-4-oxo-1,4-dihydro-1-quinolinyl]acetamide], for which the viability at 10 µM in data set [1] was found to be 90.7%; in data set [2], 96.2%; in data set [3], 91.2%; in data set [4], 104%; in [5], 97.4%; in data set [6], 98.6%. The viability at 10 µM in [7] is 91%; in data set [8], 66.7%; in [9], 98.3%; in data set [10], 100%; in data set [11], 93.3%; in data set [12], 95.1%. Besides, the MTD at 14 day in [13] is greater than 160 mg/kg.

Take `COc1ccc(-c2cn(CCN(C)C)c3cc(OC)cc(OC)c3c2=O)cc1` [CRL8350, N-[3-(Dimethylamino)ethyl]-5,7-dimethoxy-3-(4-methoxyphenyl)-1,4-dihydro-4-quinolinone]: the viability at 10 µM in data set [1] was found to be 99.5%; in [2], 93%; in data set [3], 95.3%; in data set [4] it was 92%; in [5], 181%; in [6], 95.3%. In addition, the viability at 10 µM in data set [7] is 87.1%; in [8], 59.5%; in [9], 85.6%; in [10], 101%; in data set [11], 91.5%; in data set [12], 86.9%. In addition, the MTD at 14 day in data set [13] was greater than 160 mg/kg.
